# Measured values reported in patent US8952017B2 (Emisphere Technologies, Inc., priority 2004, dated 2015).
# Assays:
# [1] = Solid oral delivery of acyclovir in rats (plasma acyclovir by LC-MS-MS); assay type: in vivo, Male Sprague Dawley rats; conditions: oral tablet, acyclovir 25 mg/kg, no delivery agent
# Excerpt: An oral dosing tube was used.
# Results from the animals in each group were averaged for each time point.
# [2] = orally administered; cited from earlier work
smiles,measurement,setting,value
"Nc1nc2c(ncn2COCCO)c(=O)[nH]1 [Acyclovir, 9-(2-hydroxyethoxymethyl)guanine]",Mean plasma peak of Acyclovir (ng/ml) ± SD,[1],95.11 ± 73.75 ng/mL
same,bioavailability,[2],15-30%
